Measurements: PubChem BioAssay AID743284 (The Scripps Research Institute Molecular Screening Center, 2014)
The source made the active and inactive calls.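 Rule for the calls: active = compounds whose fitted concentration for half-maximal reporter inhibition is 10 µM or lower; inactive = the rest.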

The compounds below were run against COUP transcription factor 2 (Homo sapiens) (UniProt P24468) (assay: NR2F2 transcriptional activity inhibitors, potency, late-stage follow-up, cell-based, luciferase reporter, HEK293, powder samples, round 000 (AID 743284)). Details: HEK293 NGFI-A luciferase reporter, luminescence.
Chain of COUP transcription factor 2 (Homo sapiens) (P24468 whole entry, looked up): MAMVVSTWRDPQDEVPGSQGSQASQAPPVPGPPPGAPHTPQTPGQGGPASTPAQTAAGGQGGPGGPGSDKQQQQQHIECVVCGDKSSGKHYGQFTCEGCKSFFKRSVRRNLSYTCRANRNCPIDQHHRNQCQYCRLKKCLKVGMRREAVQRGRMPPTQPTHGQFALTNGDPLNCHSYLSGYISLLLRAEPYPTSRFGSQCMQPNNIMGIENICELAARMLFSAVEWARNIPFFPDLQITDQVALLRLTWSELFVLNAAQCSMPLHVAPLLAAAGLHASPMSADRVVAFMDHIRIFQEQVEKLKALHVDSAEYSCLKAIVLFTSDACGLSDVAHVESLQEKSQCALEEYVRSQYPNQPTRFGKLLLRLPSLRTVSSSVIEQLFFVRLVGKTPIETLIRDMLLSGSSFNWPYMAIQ

SMILES	IC50
Cc1ccc(OCCN2CCN(c3ncnc4sc(C)c(C)c34)CC2)cc1	3.43 µM
Cc1nn(C)c(C)c1CN(C)S(=O)(=O)c1ccc2ccccc2c1	3.27 µM
COc1ccc(CCNc2ncnc3sc(C)cc23)cc1OC	1.49 µM
CC(Nc1ncnc2ccccc12)c1ccccc1 (stereo not drawn)	4.97 µM
COc1ccc(CCNc2ncnc3sccc23)cc1OC	1.79 µM
Cc1sc2ncnc(NCCc3ccc(S(N)(=O)=O)cc3)c2c1C	5.74 µM
CCC1CCCCN1C(=O)c1cc(COc2ccc3ncccc3c2)on1 (stereo not drawn)	3.33 µM
COc1ccc(OC)c(CCNC(=O)Cn2nc(C)c3c(C)n(-c4ccc(C)cc4)nc3c2=O)c1	3.14 µM
Cc1cc(-n2nc3ccccc3n2)c2oc(SCC(=O)NC(C)(C)C)nc2c1	inactive
CC1Cc2cc(-c3csc(NC(=O)Cc4cccs4)n3)ccc2N1S(C)(=O)=O (stereo not drawn)	2.3 µM
CC(=O)Nc1ccccc1OCC(=O)c1cc(C)n(Cc2cccs2)c1C	0.586 µM
Cc1cc(C)c(S(=O)(=O)NCc2ccncc2)c(C)c1	5.42 µM
Cn1nccc1C(=O)NC1CCCc2c1cnn2-c1ccc(C(C)(C)C)cc1 (stereo not drawn)	1.38 µM
Cc1sc2ncnc(NCC3COc4ccccc4O3)c2c1C (stereo not drawn)	3.27 µM
Cc1cc(-n2c(C)cc(C(=O)CSc3ncnc4ccccc34)c2C)no1	6.99 µM
COc1ccc(C2=Nn3c([n+](C)c4ccccc43)SC2)cc1	4.8 µM
COc1ccc(CN(C)c2ccc(S(=O)(=O)N3CCN(C)CC3)cc2[N+](=O)[O-])cc1OC	2.76 µM

Now from value to compound:

IC50	SMILES
3.46 µM	COc1ccc(NS(=O)(=O)c2cccc(NC(=O)c3ccc(Cl)nc3)c2)cc1
3.02 µM	CCOC(=O)C1CCCN(S(=O)(=O)c2ccc(S(=O)(=O)N(CC)CC)cc2)C1 (stereo not drawn)
5.73 µM	COc1ccc(NS(=O)(=O)c2ccc(-c3coc(C)n3)cc2)cc1OC
4.16 µM	Cc1ccc(S(=O)(=O)CC2CSc3nc4ccccc4n32)cc1 (stereo not drawn)
2.91 µM	CCOC(=O)N1CCN(C(=O)CSCC(=O)Nc2nc(-c3ccc(-c4ccccc4)cc3)cs2)CC1
3.86 µM	O=C(Nc1ccncc1)c1ccc(Cl)c(S(=O)(=O)N2CCc3ccccc32)c1
1.87 µM	O=S(=O)(NCC1CCCO1)c1ccc(-c2ccc(S(=O)(=O)NCC3CCCO3)cc2)cc1 (stereo not drawn)
6.24 µM	Cc1oc(-c2ccc(Cl)cc2)nc1CS(=O)CC(=O)NCCCN1CCN(Cc2ccccc2)CC1 (stereo not drawn)
2.06 µM	CCOc1cc(S(=O)(=O)NCc2ccncc2)ccc1Cl
1.99 µM	CN(CC1CCCO1)S(=O)(=O)c1ccc(C(=O)Nc2nc3cc4c(cc3s2)OCO4)cc1 (stereo not drawn)
3.99 µM	CCN(CC)S(=O)(=O)c1cccc(NC(=O)CNc2cccc(S(=O)(=O)N3CCCC3)c2)c1
